Assay results from paper PMC11329928, “Design, synthesis and structure-activity relationship (SAR) studies of an unusual class of non-cationic fatty amine-tripeptide conjugates as novel synthetic antimicrobial agents” (Frontiers in Pharmacology, 2024).
Where “and” joins values, the source holds several entries; their conditions need not be identical. Equal entries are not always repeated. Structures can show the parent of a compound that is named as a salt.

Tests used:
[1] = system: S. pyogenes T; assay: Dose dependence of bacterial viability (CFU counting, Hill fit); format: cell-based, Streptococcus pyogenes; conditions: for EC50 / Δlogmax, S. pyogenes T / SC (stationary concentration, Δlog = 0), S. pyogenes T: 2 h treatment, Hill fit; for EC50 / Δlogmax, S. pyogenes T / Decrease of the number of viable bacteria in the inoculum within 2 h: BHI; for EC50 / Δlogmax, S. pyogenes T / Decrease of the number of viable bacteria in the inoculum within 2 h / SC (stationary concentration, Δlog = 0), S. pyogenes T: 37°C; for EC50: read-out: K 1/2 (concentration yielding half-variation in Δlogmax), S. pyogenes T (converted); for Δlogmax, S. pyogenes T: maximum variation in viability; for Decrease of the number of viable bacteria in the inoculum within 2 h: S. pyogenes T; for Reduction of bacterial viability at 3 × SC, S. pyogenes T: after 2 h of incubation at 3 × SC; for SC (stationary concentration, Δlog = 0), S. pyogenes T: BHI medium, added at T1, 10^7–10^8 CFU/mL, CFU vs untreated controls
From the text: First, the substitution of the fatty amino chain of 18 carbon atoms of the reference compound DICAM 2 by either an OMe group (methylated tripeptide DICAM 5) or an amine with 12 carbon atoms (DICAM 9) abolished the activity against all three pathogens. However, the activity remained intact when the chain of the fatty amine of prototypes DICAMs 1 and 4 was two carbon atoms shorter (DICAM 10 and DICAM 12, respectively), based on S. pneumoniae and S. pyogenes results. […] Third, Glu and Ala were tolerated as C-terminal residues of the lipotripeptides. […] In addition, deletion of the C-terminal Glu (DICAM 13) eradicated the activity against S. pneumoniae and S. aureus. However, a delay and small inhibition of S. pyogenes ^T growth was still observed. Fourth, Glu (DICAMs 19 and 20) and Orn (DICAMs 21 and 22) were tolerated as N-terminal residues, with the impact of these modifications being pathogen-dependent. […] SAR studies continued by measuring the dose dependence of DICAM’s activity at T1 with all the compounds found to be active against S. pyogenes or S. aureus in the initial screening, and all but one compound in the case of S. pneumoniae. The OD values of bacterial cultures were monitored after DICAM addition, and the decrease in the number of viable bacteria was measured relative to controls (Figures 4–6; Supplementary Figure S1). As antibacterial efficacy may decline with the bacterium dose in the inoculum ([Belley et al., 2009]; [Udekwu et al., 2009]; [Luca et al., 2013]), the assays were performed using the bacterial concentrations necessary for the fluorescence experiments in Section 2.3 (10^7–10^8 CFU/mL). At these high bacterial densities, MICs were determined as the DICAM concentration at which bacteria neither grow nor are killed (the stationary concentration (SC)), following [Udekwu et al., 2009]. By fitting the logarithmic plot of cell viability decrease vs. the DICAM dose to a Hill function (see Section 5.2.3.1) we were able to determine the maximum variation in viability (Δlogmax = ∆log f - ∆log 0, where ∆log f and ∆log 0 are the upper and lower limits of Δlog) in the assay conditions, the SC concentration (Δlog = 0), the dose required for half-variation in Δlogmax (K 1/2), and the cooperativity of the antimicrobial effect (N H).
(§1) Susceptibility to DICAMs was first tested by growth-inhibition assays at 50 and 100 μM of compound. Briefly, working solutions at 5 mM or 10 mM DICAM in pure DMSO were prepared from DICAM stocks (40 mM in pure DMSO) and diluted with fresh culture medium to 5× the desired final concentration. Aliquots (50 µL) of these solutions were added to 200 µL of bacterium cultures grown to early exponential phase (OD550/600 c. a. 0.15–0.2 in sterile 96-well plates (Cultek, Spain). Incubation continued for 10 h at 37°C and turbidity (OD550/600) values were measured every 20 min to monitor growth and lysis, using a VersaMax microplate reader (Molecular Devices; United Kingdom). Next, the activity dependence on DICAM’s dose was examined by measuring the turbidity of treated and untreated cultures as a function of time. Also, the decay of bacterial viability (CFU/mL) at selected times of treatment was assessed by colony counting on LB-agar or TSA plates after overnight incubation at 37°C. By default, 10 μL of 10-fold serially diluted samples were plated, which set the lower detection limit at 10^2 CFU/mL (10^1 CFU/mL when 100 μL of the undiluted sample was seeded).
As antibacterial efficacy may decline with the bacterium dose in the inoculum ([Belley et al., 2009]; [Udekwu et al., 2009]; [Luca et al., 2013]), activity assays were performed using the bacterial concentrations required for the fluorescence experiments in Section 2.3 (10^7–10^8 CFU/mL). At such bacterial densities, MICs were determined as the DICAM concentration at which bacteria neither grow nor are killed under assay conditions (the stationary concentration (SC)), as indicated in Section 2.2. […]

[2] = system: Escherichia coli DH10B; assay: Resting-cell viability (CFU) with 0.5 mM EDTA; format: cell-based; design: key to CFU's decay in the presence of 0.5 mM EDTA, Ec (data in parenthesis): (+) CFU, decay ∼1 log-unit; (−) ≤ 0.3 log-units; conditions: for Decrease in bacterial viability compared to controls in EDTA-containing buffer, E. coli: 100 µM, 20 mM Tris-HCl pH 7.5, 3 h, 37°C; for CFU's decay in the presence of 0.5 mM EDTA, Ec (data in parenthesis): E. coli DH10B, 100 µM compound, 3 h incubation
Description: (§2) Addition of tested compounds to the culture medium had little or no effect on bacterial growth, even at a concentration of 100 μM (Table 1). Since inactivity could arise from the inability of DICAMs to cross the outer membrane, we next tested their effect on bacterial suspensions in the absence or the presence of 0.5 mM EDTA, an outer membrane permeating agent. A decrease of approximately 90% in bacterial viability was observed after 3 h treatment with DICAM 2 and DICAM 4, compared to controls in EDTA-containing buffer (Supplementary Figure S5). No variations were found with the other compounds tested (Table 1), showing that only DICAMs containing Ala/Asn- Pro -Glu tripeptides were able to access the cell membrane and kill these pathogens when the outer membrane permeability was enhanced.
(§3) For activity assays on resting cells, bacteria grown to exponential phase (OD600 ≈ 0.3) were centrifuged and washed with 20 mM Tris-HCl (pH 7.5), adjusting the final OD600 to ≈0.6 (≈10^8 CFU/mL) with the same buffer. If required, EDTA (0.5 mM final concentration) was next added and the bacterial suspension was dispensed (225 µL per well) in 96-well plates, and then treated with 100 µM DICAM (25 µL). Samples were incubated at 37°C for 3 h and turbidity measurements were taken at selected intervals, also measuring the decay in cell viability at the end of incubation. Controls with buffer (with and without 1% DMSO), 100 µM DICAM, or 0.5 mM EDTA were run in parallel.

[3] = system: Pseudomonas aeruginosa PAO1; assay: Resting-cell viability (CFU) with 0.5 mM EDTA; format: cell-based; design: key to CFU's decay in the presence of 0.5 mM EDTA, Pa (data in parenthesis): (+) CFU, decay ∼1 log-unit; (−) ≤ 0.3 log-units; conditions: for CFU's decay in the presence of 0.5 mM EDTA, Pa (data in parenthesis): P. aeruginosa PAO1, 100 µM compound, 3 h incubation; for Decrease in bacterial viability compared to controls in EDTA-containing buffer, P. aeruginosa: P. aeruginosa PAO1, 100 µM, 20 mM Tris-HCl pH 7.5, 3 h, 37°C
Description: as §2, §3

[4] = system: S. aureus T; assay: Growth inhibition and bacterial survival at 100 µM (Figure 6); format: cell-based, Staphylococcus aureus; conditions: 100 µM compound, BHI, 37°C; for S. aureus T growth, % of controls: five or more hours of incubation, increment in OD600 vs controls
Description: FIGURE 6 Antimicrobial effect of DICAMs active on S. aureus ^T. (A) Growth inhibition after culture challenge at 37°C with 100 μM of compound for 2, 5, and 6.5 h in BHI. Bars represent the percentage of the increment in OD600 for treated samples compared to controls and color goes from light to dark as time increases. “X” represents Ala, Asn, Glu or Orn. (B) Dependence of the kinetics of growth (OD600) (left panel) and bacterial population (right panel) on DICAM 14 dose. Bars in light and dark grey show bacterial populations of the initial inoculum and after incubation (3 and 5 h, respectively). Data shown are the average of three replicates, with error bars indicating the standard deviation of the mean.
as §1

Compound	EC50 [1] [µM]	Δlogmax, S. pyogenes T [1]	Decrease in bacterial viability compared to controls in EDTA-containing buffer, E. coli [2]	CFU's decay in the presence of 0.5 mM EDTA, Ec (data in parenthesis) [2]	CFU's decay in the presence of 0.5 mM EDTA, Pa (data in parenthesis) [3]	Decrease in bacterial viability compared to controls in EDTA-containing buffer, P. aeruginosa [3]	Decrease of the number of viable bacteria in the inoculum within 2 h [1]	Reduction of bacterial viability at 3 × SC, S. pyogenes T [1]	SC (stationary concentration, Δlog = 0), S. pyogenes T [1]	S. aureus T growth, % of controls [4]	Permanent fall in bacterial survival ([4]; S. aureus T, 5 h incubation)
CCCCCCCCCCCCCCCCCCNC(=O)[C@H](CCC(=O)O)NC(=O)[C@H]1CCCN1C(=O)[C@H](CC(N)=O)NC(=O)OCc1ccccc1 [DICAM 1, Cbz-Asn- Pro -Glu-NH-C18H37]	8.3 ± 0.9	2.5 ± 0.1 logarithmic units									
CCCCCCCCCCCCCCCCCCNC(=O)[C@H](CCC(=O)O)NC(=O)[C@H]1CCCN1C(=O)[C@@H](N)CC(N)=O [DICAM 2, Asn- Pro -Glu-NH-C18H37 ·HCl]	14 ± 2	3.9 ± 0.4 logarithmic units	approximately 90%	(+)	(+)	approximately 90%	99.9–99.99%	94.5%–99.9			
CCCCCCCCCCCCCCCCCCNC(=O)[C@H](CCC(=O)O)NC(=O)[C@H]1CCCN1C(=O)[C@H](C)NC(=O)OCc1ccccc1 [DICAM 3, Cbz-Ala- Pro -Glu-NH-C18H37]	8.1 ± 0.4	5.4 ± 0.1 logarithmic units		(−) ((−) ≤ 0.3 log-units)	(−) ((−) ≤ 0.3 log-units)		99.9–99.99%	94.5%–99.9	3–5 µM and 3.0 ± 0.4 µM		
CCCCCCCCCCCCCCCCCCNC(=O)[C@H](CCC(=O)O)NC(=O)[C@H]1CCCN1C(=O)[C@H](C)N [DICAM 4, Ala- Pro -Glu-NH-C18H37 ·HCl]	51 ± 10	6.8 ± 0.8 logarithmic units	approximately 90%	(+)	(+)	approximately 90%			10 ± 4 µM	≈ 25 % of controls	
CCCCCCCCCCCCCCCCNC(=O)[C@H](CCC(=O)O)NC(=O)[C@H]1CCCN1C(=O)[C@H](CC(N)=O)NC(=O)OCc1ccccc1 [DICAM 10, Cbz-Asn- Pro -Glu-NH-C16H33]	6.8 ± 0.7	2.6 ± 0.1 logarithmic units									
CCCCCCCCCCCCCCCCCCNC(=O)[C@H](C)NC(=O)[C@H]1CCCN1C(=O)[C@H](C)N [DICAM 14, Ala- Pro -Ala-NH-C18H37 · HCl]	41 ± 10	3.7 ± 0.8 logarithmic units		(−) ((−) ≤ 0.3 log-units)	(−) ((−) ≤ 0.3 log-units)				22 ± 10 µM		≈ 85%
CCCCCCCCCCCCCCCCCCNC(=O)[C@H](CCC(=O)O)NC(=O)[C@H]1CCCN1C(=O)[C@H](CCC(=O)O)NC(=O)OCc1ccccc1 [DICAM 19, Cbz-Glu- Pro -Glu-NH-C18H37]	7.1 ± 0.8	3.0 ± 0.2 logarithmic units						94.5%–99.9	4−5 µM and 3.8 ± 0.9 µM		
CCCCCCCCCCCCCCCCCCNC(=O)[C@H](CCC(=O)O)NC(=O)[C@H]1CCCN1C(=O)[C@@H](N)CCC(=O)O [DICAM 20, Glu- Pro -Glu-NH-C18H37 · HCl]	17 ± 4	∼3.0 logarithmic units							8 ± 2 µM		
CCCCCCCCCCCCCCCCCCNC(=O)[C@H](CCC(=O)O)NC(=O)[C@H]1CCCN1C(=O)[C@H](CCCN)NC(=O)OCc1ccccc1 [DICAM 21, Cbz-Orn- Pro -Glu-NH-C18H37]	38 ± 40	4 ± 2 logarithmic units							∼10 µM		
CCCCCCCCCCCCCCCCCCNC(=O)[C@H](CCC(=O)O)NC(=O)[C@H]1CCCN1C(=O)[C@H](C)NC(C)=O [DICAM 24, Ac-Ala- Pro -Glu-NH-C18H37]	7.2 ± 0.4	5.3 ± 0.1 logarithmic units		(−) ((−) ≤ 0.3 log-units)			99.9–99.99%	94.5%–99.9			
Ala - Pro -Glu-NH-C18H37 · HCl [DICAM 23]										≈ 25 % of controls	
